# Measurements from patent US10537608B2, “Adiponectin peptidomimetics for treating ocular disorders” (Allysta Pharmaceuticals, Inc., priority 2015, dated 2020).
# Primed or numbered codes have the meaning given here. Where no end group is shown, it is not given here. [ ]: non-standard residue; d: D form. Dab′ = 2,3-diamino butyric acid; Nva = CCC[C@H](N)C(=O)O
# Assays:
# Assay type in all cases: in vivo, C57BL/6 mice
# [1] = tested on: Experimental dry eye (EDE) mice; experiment: Corneal fluorescein staining in experimental dry eye mice (Example 4); conditions: single treatment, topical; D5 and D10
# Procedure: Experimental dry eye (EDE) was induced in 8-week old female C57BL/6 mice by subcutaneous injection of 0.5 mg/0.2 mL scopolamine hydrobromide (Sigma-Aldrich, St. Louis, Mo.) three times a day (9 AM 0.3 mL, 1:30 PM 0.3 mL, and 6:00 PM 0.3 mL). The mice were also exposed to an air draft and 30% ambient humidity. Five experimental groups used in this study included: (1) untreated control mice (UT; no dry eye treatment and no topical treatment); (2) EDE control mice received a balanced salt solution (BSS); (3) EDE mice received ADP 355 0.1% (single chain adiponectin peptidomimetic (ADP 355) in BSS); (4) EDE mice received Lifitegrast 5%; and (5) EDE mice received 0.1% peptide adiponectin peptidomimetic (ADP 355) in BSS+Lifitegrast 5%. […] Mice were evaluated at baseline, day 5 and day 10 after the treatment initiation.
# Experiment 2—Corneal staining: The purpose of the corneal staining assay was to evaluate damage to the cornea epithelia in the murine EDE subject either as a consequence of inducing dry eye or due to treatment with 0.1% ADP 355 or with Lifitegrast 5% alone or with the combination of 0.1% ADP 355+Lifitegrast 5%. […] Corneal staining was assessed in four quadrants using a 4-point scale with 16 being the maximum score.
# Briefly, fluorescein dye (1 μï) was instilled into the eye and then the eye was washed with saline. […] The average score from the five regions was recorded. […]
# [2] = tested on: Experimental dry eye (EDE) mice; experiment: Tear volume by phenol red thread tear test in experimental dry eye mice (Example 3); conditions: 0.01% in BSS; for tear production, as measured by tear volume, compared to untreated or BSS treated EDE mice: topical 2 μl/eye 3 times a day, day 5 and day 10, p-value<0.05 vs. EDE; for difference in tear volume among those treated with ADP355, ADP399 and globular adiponectin: topical, EDE mice
# Procedure: (§1) Experimental dry eye (EDE) was induced in 8-week old female C57BL/6 mice by subcutaneous injection of 0.5 mg/0.2 mL scopolamine hydrobromide (Sigma-Aldrich, St. Louis, Mo.) three times a day (9 AM, 1:30 PM and 6 PM). A dose of 0.3 mL scopolamine hydrobromide was administered at each injection. The mice were also exposed to an air draft and 30% ambient humidity. 6 experimental groups used in this study included: (1) untreated control mice (UT; no dry eye treatment and no topical treatment); (2) untreated EDE control mice (EDE; received no topical administration); (3) EDE control mice received a balanced salt solution (BSS); (4) EDE mice received 0.01% single chain adiponectin peptidomimetic (ADP355) in BSS; (5) EDE mice receiving 0.01% peptide dimer adiponectin peptidomimetic (ADP399) in BSS; and (6) EDE mice receiving 0.01% recombinant globular adiponectin (gAdipo) in BSS. Each group included 5 mice. EDE mice treated with BSS received topical bilateral administration of 2 μï/eye, 3 times a day. EDE mice treated with ADP355 received topical bilateral administration of 2 μï/eye, 3 times a day. EDE mice treated with ADP-399 received topical bilateral administration of 2 μï/eye, 3 times a day. The gAdipo treated mice served as a positive treatment control. Mice were evaluated at baseline, day 5 and day 10 after the treatment initiation. In some experiments, ADP355, ADP-399 and gAdipo were resuspended in 0.01% BSA.
# Tear volume was measured using a phenol red thread tear test. Briefly, a cotton thread treated with phenol red at its tip (Zone-Quick; Oasis, Glendora, Calif.) was held with jeweler's forceps and placed in the tear meniscus of the lateral canthus for 20 sees to contact tear fluid. Using a microscope, the length of the red portion (wet portion) of the thread was measured in millimeters. A standard curve was derived to convert the distance measurement into tear volume.
# [3] = tested on: Experimental dry eye (EDE) mice; experiment: Corneal fluorescein staining in experimental dry eye mice (Example 3); conditions: 0.01% in BSS; for corneal staining (corneal irregularity) compared to untreated EDE mice: topical 3 times a day, score 0-4, day 5 and day 10, p-value<0.05 vs. EDE; for corneal surfaces compared to untreated normal mice (UT) and positive control gAdipo-treated mice: topical, EDE mice
# Procedure: as §1
# The severity of corneal epithelial damage was evaluated by corneal fluorescein staining. Briefly, 1% fluorescein dye (1 μï) was instilled into the eye and then the eye was washed with saline. 10 minutes after application of the dye, the eye was photographed with a slip lamp microscope using a cobalt blue light. The stained area was graded using a scoring system by two blinded observers. […] The average score from the five regions was recorded. […] In addition, the adiponectin peptidomimetic-treated mice (ADP355 and ADP-399) had corneal surfaces that were similar to those of untreated normal mice (UT) and positive control globular adiponectin-treated mice (gAdipo). The corneal surface scores in all groups at day 10 were similar to those at day 5 after treatment initiation.
Compound,corneal disruptions resulting from induced dry eye (corneal staining grade) vs untreated eyes (BSS) [1],"tear production, as measured by tear volume, compared to untreated or BSS treated EDE mice [2]","difference in tear volume among those treated with ADP355, ADP399 and globular adiponectin [2]",corneal staining (corneal irregularity) compared to untreated EDE mice [3],corneal surfaces compared to untreated normal mice (UT) and positive control gAdipo-treated mice [3]
"CS(=O)(=O)c1cccc(C[C@H](NC(=O)c2c(Cl)cc3c(c2Cl)CCN(C(=O)c2ccc4ccoc4c2)C3)C(=O)O)c1 [Lifitegrast, reference compound]",improved corneal disruptions,,,,
"(DAsn-Ile-Pro-Nva-Leu-Tyr-DSer-Phe-Ala-DSer-His-Pro)2-Dab-NH2 ([dN]IP[Nva]LY[dS]FA[dS]HP[Dab′]-NH2; also: branched dimer: two chains joined via C-terminal Dab) [ADP399, linear branched dimer of ADP355]",,higher,no significant difference,less corneal staining,similar
"DAsn-Ile-Pro-Nva-Leu-Tyr-DSer-Phe-Ala-DSer-NH2 ([dN]IP[Nva]LY[dS]FA[dS]-NH2; N-terminus assumed; SMILES CCC[C@H](NC(=O)[C@@H]1CCCN1C(=O)[C@@H](NC(=O)[C@H](N)CC(N)=O)[C@@H](C)CC)C(=O)N[C@@H](CC(C)C)C(=O)N[C@@H](Cc1ccc(O)cc1)C(=O)N[C@H](CO)C(=O)N[C@@H](Cc1ccccc1)C(=O)N[C@@H](C)C(=O)N[C@H](CO)C(N)=O) [ADP355, single chain adiponectin peptidomimetic]",improved corneal disruptions,higher,no significant difference,less corneal staining,similar
